Data taken from patent US20220119354A1, “DIAMINO-SUBSTITUTED PYRIDINES AND PYRIMIDINES AS HERBICIDES” (FMC Corporation, priority 2019, published 2022).

Assays:
Type in all cases: in vivo
[1] = tested on: barnyardgrass (Echinochloa crus-galli); assay: Test A preemergence, barnyardgrass; settings: 0 to 100 scale, 0 is no effect, 100 is complete control
How it was run: (§1)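 Ratings reflect visual comparison with untreated controls roughly 10 d after greenhouse application, 0 meaning no effect and 100 complete control. Treatment was by directed soil spray at planting or by spray onto one- to two-leaf plants in loam/sand pots.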

kochia (Kochia scoparia) [2] = assay: Test A preemergence, kochia; settings: 0 to 100 scale, 0 is no effect, 100 is complete control
How it was run: as §1

[3] = tested on: ragweed (common ragweed, Ambrosia elatior); assay: Test A preemergence, ragweed; settings: 0 to 100 scale, 0 is no effect, 100 is complete control
How it was run: as §1

[4] = tested on: ryegrass, Italian (Lolium multiflorum); assay: Test A preemergence, Italian ryegrass; settings: 0 to 100 scale, 0 is no effect, 100 is complete control
How it was run: as §1

[5] = tested on: foxtail, giant (Setaria faberii); assay: Test A preemergence, giant foxtail; settings: 0 to 100 scale, 0 is no effect, 100 is complete control
How it was run: as §1

[6] = tested on: pigweed (Amaranthus retroflexus); assay: Test A preemergence, pigweed; settings: 0 to 100 scale, 0 is no effect, 100 is complete control
How it was run: as §1

[7] = tested on: barnyardgrass (Echinochloa crus-galli); assay: Test A postemergence, barnyardgrass; settings: 0 to 100 scale; for Plant response rating, Barnyardgrass: 125 g ai/ha, 0 no effect, 100 complete control; for Barnyardgrass plant response rating: 500 g ai/ha, 0 is no effect, 100 is complete control
How it was run: as §1

kochia (Kochia scoparia) [8] = assay: Test A postemergence, kochia; settings: 0 to 100 scale; for Plant response rating, Kochia: 125 g ai/ha, 0 no effect, 100 complete control; for Kochia plant response rating: 500 g ai/ha, 0 is no effect, 100 is complete control
How it was run: as §1

[9] = tested on: ragweed (common ragweed, Ambrosia elatior); assay: Test A postemergence, ragweed; settings: 0 to 100 scale; for Plant response rating, Ragweed: 125 g ai/ha, 0 no effect, 100 complete control; for Ragweed plant response rating: 500 g ai/ha, 0 is no effect, 100 is complete control
How it was run: as §1

[10] = tested on: ryegrass, Italian (Lolium multiflorum); assay: Test A postemergence, Italian ryegrass; settings: 0 to 100 scale; for Plant response rating, Ryegrass, Italian: 125 g ai/ha, 0 no effect, 100 complete control; for Ryegrass, Italian plant response rating: 500 g ai/ha, 0 is no effect, 100 is complete control
How it was run: as §1

[11] = tested on: foxtail, giant (Setaria faberii); assay: Test A postemergence, giant foxtail; settings: 0 to 100 scale; for Plant response rating, Foxtail, Giant: 125 g ai/ha, 0 no effect, 100 complete control; for Foxtail, Giant plant response rating: 500 g ai/ha, 0 is no effect, 100 is complete control
How it was run: as §1

[12] = tested on: pigweed (Amaranthus retroflexus); assay: Test A postemergence, pigweed; settings: 0 to 100 scale; for Plant response rating, Pigweed: 125 g ai/ha, 0 no effect, 100 complete control; for Pigweed plant response rating: 500 g ai/ha, 0 is no effect, 100 is complete control
How it was run: as §1

[13] = tested on: wheat (Triticum aestivum); assay: Test A postemergence, wheat; settings: 0 to 100 scale; for Plant response rating, Wheat: 125 g ai/ha, 0 no effect, 100 complete control; for Wheat plant response rating: 500 g ai/ha, 0 is no effect, 100 is complete control
How it was run: as §1

corn (Zea mays) = assay: Test A postemergence, corn; settings: 0 to 100 scale; for Plant response rating, Corn: 125 g ai/ha, 0 no effect, 100 complete control; for Corn plant response rating: 500 g ai/ha, 0 is no effect, 100 is complete control
How it was run: as §1

[14] = tested on: blackgrass (Alopecurus myosuroides); assay: Test A postemergence, blackgrass; settings: 0 to 100 scale; for Plant response rating, Blackgrass: 125 g ai/ha, 0 no effect, 100 complete control; for Blackgrass plant response rating: 500 g ai/ha, 0 is no effect, 100 is complete control
How it was run: as §1

[15] = tested on: galium (catchweed bedstraw, Galium aparine); assay: Test A postemergence, galium; settings: 0 to 100 scale; for Plant response rating, Galium: 125 g ai/ha, 0 no effect, 100 complete control; for Galium plant response rating: 500 g ai/ha, 0 is no effect, 100 is complete control
How it was run: as §1

rice (Oryza sativa) = assay: Test B flooded paddy test, rice; settings: Flood, 250 g ai/ha, applied to paddy water, 2-leaf stage, visual evaluation after 13 to 15 d
How it was run: (§2)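 Visual injury scores run from 0 (no effect) to 100 (complete control), assigned by comparison with controls 13 to 15 d after treatment. Treatment went into floodwater standing 3 cm over the soil of pots holding 2-leaf plants.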

[16] = tested on: sedge, umbrella (small-flower umbrella sedge, Cyperus difformis); assay: Test B flooded paddy test, umbrella sedge; settings: Flood, 250 g ai/ha, applied to paddy water, 2-leaf stage, visual evaluation after 13 to 15 d
How it was run: as §2

[17] = tested on: ducksalad (Heteranthera limosa); assay: Test B flooded paddy test, ducksalad; settings: Flood, 250 g ai/ha, applied to paddy water, 2-leaf stage, visual evaluation after 13 to 15 d
How it was run: as §2

[18] = tested on: barnyardgrass (Echinochloa crus-galli); assay: Test B flooded paddy test, barnyardgrass; settings: Flood, 250 g ai/ha, applied to paddy water, 2-leaf stage, visual evaluation after 13 to 15 d
How it was run: as §2

SMILES | Barnyardgrass plant response rating ([1]; 125 g ai/ha) | Barnyardgrass plant response rating ([1]; 500 g ai/ha) | Kochia plant response rating (kochia (Kochia scoparia) [2]; 125 g ai/ha) | Kochia plant response rating (kochia (Kochia scoparia) [2]; 500 g ai/ha) | Ragweed plant response rating ([3]; 125 g ai/ha) | Ragweed plant response rating ([3]; 500 g ai/ha) | Ryegrass, Italian plant response rating ([4]; 125 g ai/ha) | Ryegrass, Italian plant response rating ([4]; 500 g ai/ha) | Foxtail, Giant plant response rating ([5]; 125 g ai/ha) | Foxtail, Giant plant response rating ([5]; 500 g ai/ha) | Pigweed plant response rating ([6]; 125 g ai/ha) | Pigweed plant response rating ([6]; 500 g ai/ha) | Plant response rating, Barnyardgrass [7] | Barnyardgrass plant response rating [7] | Plant response rating, Kochia (kochia (Kochia scoparia) [8]) | Kochia plant response rating (kochia (Kochia scoparia) [8]) | Plant response rating, Ragweed [9] | Ragweed plant response rating [9] | Plant response rating, Ryegrass, Italian [10] | Ryegrass, Italian plant response rating [10] | further results
CC(Nc1ncc(C(F)(F)F)c(N)n1)c1coc2cc(F)ccc12 (racemic) [Compound 51] | 40 | 100 | 90 | 100 | 100 | 100 | 60 | 80 | 10 | 90 | 90 | 100 | 0 | 50 | 80 | 90 | 90 | 100 | 30 | 50 | Plant response rating, Foxtail, Giant [11]: 20; Foxtail, Giant plant response rating [11]: 50; Plant response rating, Pigweed [12]: 100; Pigweed plant response rating [12]: 100; Plant response rating, Wheat [13]: 0; Wheat plant response rating [13]: 30; Plant response rating, Corn (corn (Zea mays)): 0; Corn plant response rating (corn (Zea mays)): 10; Plant response rating, Blackgrass [14]: 0; Blackgrass plant response rating [14]: 10; Plant response rating, Galium [15]: 70; Galium plant response rating [15]: 90; Plant response rating, Rice (0 to 100 scale, 0 is no effect, 100 is complete control) (rice (Oryza sativa)): 0; Plant response rating, Sedge, Umbrella (0 to 100 scale, 0 is no effect, 100 is complete control) [16]: 0; Plant response rating, Ducksalad (0 to 100 scale, 0 is no effect, 100 is complete control) [17]: 0; Plant response rating, Barnyardgrass (0 to 100 scale, 0 is no effect, 100 is complete control) [18]: 0
CCC(Nc1ncc(C(F)(F)F)c(N)n1)c1coc2ccccc12 (racemic) [Compound 53] | 0 | 80 | 60 | 90 | 100 | 90 | 20 | 20 | 90 | 90 | 80 | 90 | 0 | 30 | 50 | 90 | 20 | 80 | 20 | 60 | Plant response rating, Foxtail, Giant [11]: 10; Foxtail, Giant plant response rating [11]: 30; Plant response rating, Pigweed [12]: 60; Pigweed plant response rating [12]: 100; Plant response rating, Wheat [13]: 0; Wheat plant response rating [13]: 0; Plant response rating, Corn (corn (Zea mays)): 0; Corn plant response rating (corn (Zea mays)): 0; Plant response rating, Blackgrass [14]: 0; Blackgrass plant response rating [14]: 0; Plant response rating, Galium [15]: 30; Galium plant response rating [15]: 80; Plant response rating, Rice (0 to 100 scale, 0 is no effect, 100 is complete control) (rice (Oryza sativa)): 0; Plant response rating, Sedge, Umbrella (0 to 100 scale, 0 is no effect, 100 is complete control) [16]: 0; Plant response rating, Ducksalad (0 to 100 scale, 0 is no effect, 100 is complete control) [17]: 0; Plant response rating, Barnyardgrass (0 to 100 scale, 0 is no effect, 100 is complete control) [18]: 0
